# Laboratory results taken from patent US8722849B2, “Polypeptides” (Novo Nordisk A/S, priority 2011, dated 2014).
# Like-named read-outs stand apart in the source and are kept apart here. Starred links: 1 amine or outer side, 2 acyl side, 3 side chain; linkers in the order of their positions; H or OH if unused. Positions of bridges follow the written chain, without caps; N, C: chain ends. Residues, ends and D or L forms follow the SMILES beside them. *: point of attachment. C20 diacid = O=C(O)CCCCCCCCCCCCCCCCCCC(=O)*; C18 diacid = O=C(O)CCCCCCCCCCCCCCCCC(=O)*; γGlu = O=C(O)[C@H](CCC(=O)[*:2])N[*:1]
# How the values were obtained:
# food intake = test: Assay (I) efficacy testing on appetite (food intake), ad libitum fed rat model; assay type: in vivo, Sprague Dawley (SD) rats; settings: 3 nmol/kg
# Summary of the method: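 Sprague Dawley rats (200–250 g), single-housed under reversed light cycle with free food and water, got one ip, po or sc dose of 0.01–3 mg/kg just before lights-off. Individual food intake recorded hourly for 7 h, then at 24 h and sometimes 48 h; groups of 5–8, Grubbs outliers excluded.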
# [1] = Assay (IV) determination of solubility; assay type: physicochemical
# Summary of the method: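 Polypeptide in water (~500 nmol/ml stock) was mixed 1:1 with 100 mM buffers from pH 3.0 to 8.0 (glycylglycine pH 3.0–5.0; bistrispropane pH 6.0–8.0). After 18 hours at room temperature, samples were centrifuged and the polypeptide remaining in solution was quantified by HPLC.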
# [2] = bistrispropane buffer, pH 6, pH 6.0, read-out: Solubility pH 6.0
# [3] = bistrispropane buffer, pH 6.5, pH 6.5, read-out: Solubility pH 6.5
# [4] = bistrispropane buffer, pH 7, pH 7.0, read-out: Solubility pH 7.0
# [5] = bistrispropane buffer, pH 7.5, pH 7.5, read-out: Solubility pH 7.5
# [6] = bistrispropane buffer, pH 8, pH 8.0, read-out: Solubility pH 8.0
# [7] = glycylglycine buffer, pH 3, pH 3.0, read-out: Solubility pH 3.0
# [8] = glycylglycine buffer, pH 4, pH 4.0, 18 hours at room temperature, Table 2, read-out: Solubility pH 4.0
# [9] = glycylglycine buffer, pH 4, pH 4.0, read-out: Solubility pH 4.0
# [10] = glycylglycine buffer, pH 5, pH 5.0, read-out: Solubility pH 5.0
# [11] = bistrispropane buffer, pH 7, pH 7.0, 18 hours at room temperature, Table 3, read-out: Solubility pH 7.0
# [12] = bistrispropane buffer, pH 7, pH 7.0, Table 8, read-out: Solubility pH 7.0
Structure (SMILES),Food intake reduction 0-24 h 3 nmol/kg (%) (food intake; 0-24 h),Food intake reduction 24-48 h 3 nmol/kg (%) (food intake; 24-48 h),"solubility at 18 h [1, 2] [µM]","solubility at 18 h [1, 3] [µM]","solubility at 18 h [1, 4] [µM]","solubility at 18 h [1, 5] [µM]","solubility at 18 h [1, 6] [µM]","solubility at 18 h [1, 7] [µM]","solubility at 18 h [1, 8] [µM]","solubility at 18 h [1, 9] [µM]","solubility at 18 h [1, 10] [µM]","solubility at 18 h [1, 11] [µM]","solubility at 18 h [1, 12] [µM]","solubility at 18 h ([1]; bistrispropane buffer, pH 7, pH 7.0, Table 9, read-out: Solubility pH 7.0) [µM]","solubility at 18 h ([1]; bistrispropane buffer, pH 7.5, pH 7.5, Table 9, read-out: Solubility pH 7.5) [µM]"
"CC[C@H](C)[C@H](NC(=O)[C@@H]1CCCN1C(=O)CNC(=O)[C@H](Cc1ccccc1)NC(=O)[C@H](CC(N)=O)NC(=O)[C@H](CC(N)=O)NC(=O)[C@H](CO)NC(=O)[C@H](CO)NC(=O)[C@H](Cc1c[nH]cn1)NC(=O)[C@H](CCCNC(=N)N)NC(=O)[C@H](CC(C)C)NC(=O)[C@H](Cc1ccccc1)NC(=O)[C@H](CCC(=O)O)NC(=O)[C@H](C)NC(=O)[C@H](CC(C)C)NC(=O)[C@H](CCCNC(=N)N)NC(=O)[C@H](CCC(N)=O)NC(=O)[C@@H](NC(=O)[C@H](C)NC(=O)[C@@H]1CSSC[C@H](NC(=O)[C@H](CCCCN)NC(=O)CC[C@H](NC(=O)CCCCCCCCCCCCCCCCCCC(=O)O)C(=O)O)C(=O)N[C@@H](CC(N)=O)C(=O)N[C@@H]([C@@H](C)O)C(=O)N[C@@H](C)C(=O)N[C@@H]([C@@H](C)O)C(=O)N1)[C@@H](C)O)C(=O)N[C@@H](CC(C)C)C(=O)N1CCC[C@H]1C(=O)N1CCC[C@H]1C(=O)N[C@H](C(=O)N[C@@H](CC(N)=O)C(=O)N[C@H](C(=O)NCC(=O)N[C@@H](CO)C(=O)N[C@@H](CC(N)=O)C(=O)N[C@H](C(=O)N[C@@H](Cc1ccc(O)cc1)C(N)=O)[C@@H](C)O)C(C)C)[C@@H](C)O [Example 50, N-alpha-[(S)-4-Carboxy-4-(19-carboxynonadecanoylamino)butyryl]-[Glu14,Arg17]-pramlintide] ({C20 diacid-γGlu}-KCNTATCATQRLAEFLRHSSNNFGPILPPTNVGSNTY-NH2; disulfide 2-7 (inferred))",30,8,161,132,73,62,21,> 200,> 200,> 200,183,–,–,–,–
"CC(C)C[C@H](NC(=O)[C@H](CCCNC(=N)N)NC(=O)[C@H](CCC(N)=O)NC(=O)[C@@H](NC(=O)[C@H](C)NC(=O)[C@@H]1CSSC[C@H](NC(=O)[C@H](CCCCN)NC(=O)CC[C@H](NC(=O)CCCCCCCCCCCCCCCCCCC(=O)O)C(=O)O)C(=O)N[C@@H](CC(N)=O)C(=O)N[C@@H]([C@@H](C)O)C(=O)N[C@@H](C)C(=O)N[C@@H]([C@@H](C)O)C(=O)N1)[C@@H](C)O)C(=O)N[C@@H](C)C(=O)N[C@@H](CCC(=O)O)C(=O)N[C@@H](Cc1ccccc1)C(=O)N[C@@H](CC(C)C)C(=O)N[C@@H](CCCNC(=N)N)C(=O)N[C@@H](Cc1c[nH]cn1)C(=O)N[C@@H](CO)C(=O)N[C@@H](CO)C(=O)N[C@@H](CC(N)=O)C(=O)N[C@@H](CC(N)=O)C(=O)N[C@@H](Cc1ccccc1)C(=O)NCC(=O)N[C@@H](C)C(=O)N1CCC[C@H]1C(=O)N[C@@H](CC(C)C)C(=O)N[C@@H](CO)C(=O)N[C@@H](CO)C(=O)N[C@H](C(=O)N[C@@H](CC(N)=O)C(=O)N[C@H](C(=O)NCC(=O)N[C@@H](CO)C(=O)N[C@@H](Cc1c[nH]cn1)C(=O)N[C@H](C(=O)N[C@@H](Cc1ccc(O)cc1)C(N)=O)[C@@H](C)O)C(C)C)[C@@H](C)O [Example 65, N-alpha-[(S)-4-Carboxy-4-(19-carboxynonadecanoylamino)butyryl]-[Glu14,Arg17,Ala25,Pro26,Ser28,Ser29,His35]-pramlintide] ({C20 diacid-γGlu}-KCNTATCATQRLAEFLRHSSNNFGAPLSSTNVGSHTY-NH2; disulfide 2-7 (inferred); C-terminus assumed)",–,–,> 200,> 200,176,96,89,> 200,> 200,> 200,> 200,176,176,–,–
"CC[C@H](C)[C@H](NC(=O)[C@@H]1CCCN1C(=O)CNC(=O)[C@H](Cc1ccccc1)NC(=O)[C@H](CC(N)=O)NC(=O)[C@H](CC(N)=O)NC(=O)[C@H](CO)NC(=O)[C@H](CO)NC(=O)[C@H](Cc1c[nH]cn1)NC(=O)[C@H](CCCNC(=N)N)NC(=O)[C@H](CC(C)C)NC(=O)[C@H](Cc1ccccc1)NC(=O)[C@H](CCC(=O)O)NC(=O)[C@H](C)NC(=O)[C@H](CC(C)C)NC(=O)[C@H](CCCNC(=N)N)NC(=O)[C@H](CCC(N)=O)NC(=O)[C@@H](NC(=O)[C@H](C)NC(=O)[C@@H]1CSSC[C@H](NC(=O)[C@H](Cc2c[nH]cn2)NC(=O)CC[C@H](NC(=O)CCCCCCCCCCCCCCCCCCC(=O)O)C(=O)O)C(=O)N[C@@H](CC(N)=O)C(=O)N[C@@H]([C@@H](C)O)C(=O)N[C@@H](C)C(=O)N[C@@H]([C@@H](C)O)C(=O)N1)[C@@H](C)O)C(=O)N[C@@H](CC(C)C)C(=O)N1CCC[C@H]1C(=O)N1CCC[C@H]1C(=O)N[C@H](C(=O)N[C@@H](CC(N)=O)C(=O)N[C@H](C(=O)NCC(=O)N[C@@H](CO)C(=O)N[C@@H](CC(N)=O)C(=O)N[C@H](C(=O)N1CCC[C@H]1C(N)=O)[C@@H](C)O)C(C)C)[C@@H](C)O [Example 90, N-alpha-[(S)-4-Carboxy-4-(19-carboxynonadecanoylamino)butyryl]-[His1,Glu14,Arg17,Pro37]-pramlintide] ({C20 diacid-γGlu}-HCNTATCATQRLAEFLRHSSNNFGPILPPTNVGSNTP-NH2; disulfide 2-7 (inferred); C-terminus assumed)",–,–,> 200,> 200,> 200,> 200,> 200,> 200,> 200,> 200,> 200,> 200,> 200,> 200,> 200
"CC[C@H](C)[C@H](NC(=O)[C@@H]1CCCN1C(=O)CNC(=O)[C@H](Cc1ccccc1)NC(=O)[C@H](CC(N)=O)NC(=O)[C@H](CC(N)=O)NC(=O)[C@H](CO)NC(=O)[C@H](CO)NC(=O)[C@H](Cc1c[nH]cn1)NC(=O)[C@H](Cc1c[nH]cn1)NC(=O)[C@H](CC(C)C)NC(=O)[C@H](Cc1ccccc1)NC(=O)[C@H](CCC(=O)O)NC(=O)[C@H](C)NC(=O)[C@H](CC(C)C)NC(=O)[C@H](CCCNC(=N)N)NC(=O)[C@H](CCC(N)=O)NC(=O)[C@@H](NC(=O)[C@H](C)NC(=O)[C@@H]1CSSC[C@H](NC(=O)[C@H](Cc2c[nH]cn2)NC(=O)CC[C@H](NC(=O)CCCCCCCCCCCCCCCCCCC(=O)O)C(=O)O)C(=O)N[C@@H](CC(N)=O)C(=O)N[C@@H]([C@@H](C)O)C(=O)N[C@@H](C)C(=O)N[C@@H]([C@@H](C)O)C(=O)N1)[C@@H](C)O)C(=O)N[C@@H](CC(C)C)C(=O)N1CCC[C@H]1C(=O)N1CCC[C@H]1C(=O)N[C@H](C(=O)N[C@@H](CC(N)=O)C(=O)N[C@H](C(=O)NCC(=O)N[C@@H](CO)C(=O)N[C@@H](Cc1c[nH]cn1)C(=O)N[C@H](C(=O)N[C@@H](Cc1ccc(O)cc1)C(N)=O)[C@@H](C)O)C(C)C)[C@@H](C)O [Example 76, N-alpha-[(S)-4-Carboxy-4-(19-carboxynonadecanoylamino)butyryl]-[His1,Glu14,His17,His35]-pramlintide] ({C20 diacid-γGlu}-HCNTATCATQRLAEFLHHSSNNFGPILPPTNVGSHTY-NH2; disulfide 2-7 (inferred); C-terminus assumed)",–,–,45,1,4,104,> 200,> 200,> 200,> 200,> 200,–,–,–,–
"CC[C@H](C)[C@H](NC(=O)[C@@H]1CCCN1C(=O)CNC(=O)[C@H](Cc1ccccc1)NC(=O)[C@H](CC(N)=O)NC(=O)[C@H](CC(N)=O)NC(=O)[C@H](CO)NC(=O)[C@H](CO)NC(=O)[C@H](Cc1c[nH]cn1)NC(=O)[C@H](CCCNC(=N)N)NC(=O)[C@H](CC(C)C)NC(=O)[C@H](Cc1ccccc1)NC(=O)[C@H](CCC(=O)O)NC(=O)[C@H](C)NC(=O)[C@H](CC(C)C)NC(=O)[C@H](CCCNC(=N)N)NC(=O)[C@H](CCC(N)=O)NC(=O)[C@@H](NC(=O)[C@H](C)NC(=O)[C@@H]1CSSC[C@H](NC(=O)[C@H](CCCCN)NC(=O)[C@H](CCC(=O)O)NC(=O)CC[C@H](NC(=O)CCCCCCCCCCCCCCCCC(=O)O)C(=O)O)C(=O)N[C@@H](CC(N)=O)C(=O)N[C@@H]([C@@H](C)O)C(=O)N[C@@H](C)C(=O)N[C@@H]([C@@H](C)O)C(=O)N1)[C@@H](C)O)C(=O)N[C@@H](CC(C)C)C(=O)N1CCC[C@H]1C(=O)N1CCC[C@H]1C(=O)N[C@H](C(=O)N[C@@H](CC(N)=O)C(=O)N[C@H](C(=O)NCC(=O)N[C@@H](CO)C(=O)N[C@@H](Cc1c[nH]cn1)C(=O)N[C@H](C(=O)N[C@@H](Cc1ccc(O)cc1)C(N)=O)[C@@H](C)O)C(C)C)[C@@H](C)O [Example 62, N-alpha-[(S)-4-Carboxy-4-(17-carboxyheptadecanoylamino)butyryl]-Glu-[Glu14,Arg17,His35]-pramlintide] ({C18 diacid-γGlu}-EKCNTATCATQRLAEFLRHSSNNFGPILPPTNVGSHTY-NH2; disulfide 3-8 (inferred); C-terminus assumed)",–,–,> 200,> 200,> 200,> 200,> 200,> 200,> 200,> 200,> 200,> 200,> 200,–,–
